Test results published in US5202348A, “Thiarubrine antifungal agents” (The University of British Columbia, priority 1990, dated 1993).
In brackets after ≈: the same amount, converted by molar mass. Where two headings read alike, the source gives them in different places.

How the values were obtained:
[1] = tested on: Streptococcus faecalis; experiment: Minimal inhibitory concentration, agar dilution method; type: cell-based; details: Enterococcus faecalis, ATCC29212, 21 h; No. 2, ATCC 29212
Method: Results were obtained by agar dilution method. Mueller Hinton agar plates (pH - 7.4) with different doses of ThD were inoculated with 10^4 cfu/spot and incubated 21 hours at 34°. MIC is the lowest concentration with no growth.

[2] = tested on: C. albicans; experiment: Growth inhibition of C. albicans during 24 hours exposure; type: cell-based, Candida albicans; details: Candida albicans, 24 hours exposure
Method: (§1) Doses inhibiting growth in 50% were estimated by plotting concentration o
(§2) a logarithmic scale and percent of growth inhibition for 24 hours exposur
(§3) on a probability scale.

[3] = tested on: L1210; experiment: Growth inhibition of L1210 during 24 hours exposure; type: cell-based, Mouse; details: Mus musculus, L1210; 24 hours exposure; Table 1; read-out: Concentration causing 50% growth inhibition
Method: (§4) L1210 = Mouse lymphocytic leukemia
as §1, §2, §3

[4] = as above; type: cell-based, Mouse; details: mouse, l1210 cells; Table 2; read-out: Toxicity Index, LC50 L1210 / C. albicans
Method: as §4, §1, §2, §3

[5] = tested on: P815; experiment: Growth inhibition of P815 mastocytoma during 24 hours exposure; type: cell-based, Mouse; details: Mus musculus, P815, 24 hours exposure
Method: (§5) P815 = Mouse mastocytoma […]
as §2, §3

[6] = as above; type: cell-based, Mouse; details: mouse, p815 cells
Method: as §5, §2, §3

[7] = tested on: C. albicans; experiment: Influence of exposure of ThD for two hrs. to different pH (LC50 on C. albicans); type: cell-based; details: Candida albicans, two hrs. in sodium phosphate buffer
Excerpt: (§6) Data on degradation of Thiarubrine D (ThD) expressed as changes of concentration required to inhibit growth of C. albicans in 50% during 24 hrs. exposure (Lc50 24 hrs.).

[8] = tested on: C. albicans; experiment: Degradation of ThD under exposure to bench cool white light (LC50 on C. albicans); type: cell-based; details: Candida albicans
Excerpt: as §6

[9] = Stability / decomposition of thiarubrines; details: under light
[10] = tested on: C. albicans; experiment: Changes in LC50 on addition of fetal bovine serum to Saboraud dextrose medium; type: cell-based; details: Candida albicans
Excerpt: as §6

[11] = tested on: P. aeruginosa; experiment: Growth inhibition of P. aeruginosa during 24 hours exposure; type: cell-based, Pseudomonas aeruginosa; details: Pseudomonas aeruginosa; 24 hours exposure; Table 4; read-out: Minimal concentration causing 50% growth inhibition
Method: as §1, §2, §3

[12] = tested on: E. coli; experiment: Growth inhibition of E. coli during 24 hours exposure; type: cell-based, Escherichia coli; details: Escherichia coli; 24 hours exposure; Table 4; read-out: Minimal concentration causing 50% growth inhibition
Method: as §1, §2, §3

[13] = tested on: Candida albicans, Aspergillus fumigatus and Cryptococcus neoformans; experiment: Antifungal activity (general statement); type: cell-based; details: extremely low concentrations
[14] = tested on: 3T3; experiment: Growth inhibition of 3T3 during 24 hours exposure; type: cell-based, Mouse; details: Mus musculus, NIH3T3; 24 hours exposure; Table 1; read-out: Concentration causing 50% growth inhibition
Method: (§7) 3T3 = Mouse fibroblasts
as §1, §2, §3

[15] = Growth inhibition of 3T3 during 24 hours exposure; type: cell-based, Mouse; details: mouse, 3t3 cells; Table 2; read-out: Toxicity Index, LC50 3T3 / LC50 C. albicans
Method: as §7, §1, §2, §3

[16] = tested on: bacteria; experiment: Anti-bacterial activity (summary); type: cell-based; details: Table 14
[17] = tested on: E. coli; experiment: Growth inhibition of E. coli during 24 hours exposure; type: cell-based, Escherichia coli; details: Escherichia coli; 24 hours exposure; Table 3; read-out: Minimal concentration causing 100% growth inhibition
[18] = tested on: P815 mastocytoma; experiment: LC50 (24 hrs.), doses required to inhibit growth in 50%, different method; type: cell-based; details: Mus musculus, P815, 24 h, read-out: LC50 (24 hrs.), dose required to inhibit growth in 50%
[19] = Table 1, read-out: Concentration causing 50% growth inhibition
[20] = Table 4, read-out: Minimal concentration causing 50% growth inhibition

CC#CC1=CC=C(C#CC#CC2CO2)SS1 (stereo not drawn) [Thiarubrine D]
MIC [1]: 10 mg/L (≈ 40.9 µM)
IC50 [2, 19]: 0.0006 mg/L (≈ 0.00246 µM)
IC50 [2, 20]: 0.0006 mg/L (≈ 0.00246 µM)
IC50 [3]: 0.047 mg/L (≈ 0.192 µM)
selectivity ratio at 24 h [4]: 78
IC50 [5, 19]: 0.12 mg/L (≈ 0.491 µM)
IC100 ([5]; Table 3, read-out: Minimal concentration causing 100% growth inhibition): 1.25 µg/mL
IC50 [5, 20]: 0.12 mg/L (≈ 0.491 µM)
selectivity ratio at 24 h ([6]; 50% growth inhibition, Table 4, read-out: Ratio of concentration needed to inhibit growth in 50%, P815 vs C. albicans): 200
selectivity ratio at 24 h ([6]; 100% growth inhibition, Table 3, read-out: Ratio of minimal concentration causing 100% growth inhibition, P815 line vs C. albicans): ~500
selectivity ratio at 24 h ([6]; Table 2, read-out: Toxicity Index, LC50 P815 / LC50 C. albicans): 200
IC50 ([7]; pH 5): 0.04 mg/L (≈ 0.164 µM)
IC50 ([7]; pH 6): 0.034 mg/L (≈ 0.139 µM)
IC50 ([7]; pH 7): 0.02 mg/L (≈ 0.0819 µM)
IC50 ([7]; pH 8): 0.052 mg/L (≈ 0.213 µM)
IC50 ([8]; 0 mins. exposure to bench cool white light, read-out: LC50 (24 hrs.)): 0.007 mg/L (≈ 0.0286 µM)
IC50 ([8]; 5 mins. exposure to bench cool white light, read-out: LC50 (24 hrs.)): 0.012 mg/L (≈ 0.0491 µM)
IC50 ([8]; 15 mins. exposure to bench cool white light, read-out: LC50 (24 hrs.)): 0.026 mg/L (≈ 0.106 µM)
IC50 ([8]; 0.5 hrs. exposure to bench cool white light, read-out: LC50 (24 hrs.)): 0.14 mg/L (≈ 0.573 µM)
IC50 ([8]; 24 h, read-out: LC50 (24 hrs.), 24 hrs. exposure to bench cool white light): 5 mg/L (≈ 20.5 µM)
IC50 ([8]; read-out: LC50 (24 hrs.), 6 hrs. exposure to bench cool white light): 5 mg/L (≈ 20.5 µM)
Light sensitivity [9]: light sensitive and breaks down under light to the corresponding thiophene
IC50 ([10]; SAB): 0.007 mg/L (≈ 0.0286 µM)
IC50 ([10]; SAB + 5% FBS): 0.014 mg/L
IC50 ([10]; SAB + 10% FBS): 0.016 mg/L
IC50 [11]: 0.21 mg/L (≈ 0.859 µM)
IC50 [12]: 0.02 mg/L (≈ 0.0819 µM)
Antifungal activity [13]: very high antifungal activity
IC50 [14]: 0.48 mg/L (≈ 1.96 µM)
selectivity ratio at 24 h [15]: 800
Anti-bacterial [16]: Y
MIC [17]: 0.078 mg/L (≈ 0.319 µM)
IC50 [18]: 0.085 mg/L (≈ 0.348 µM)
